This is an account of results in patent US9000036B2, “Compositions and methods for targeting of treating neoplasms” (priority 2006, dated 2015).

For series [1], the system named is CD4 and CD8. The experiment in a line: Immunological pathological analysis of removed osteosarcoma tumor (CD4, CD8). The series is classed as in vivo. The following applies: C57 mice, after three weeks iv treatment. As for the experimental part: Osteosarcoma cell line growth in the culture for days to reach 10×10^3, then it is implanted into right arm of mice C57, wait about one week, tumor grow to 1 cm size. We prepared that Methylene Diphosphonate (MDP) 100 mg, Ara-C 50 mg and hapten DNP 0.5 mg were added into the stannous chloride 0.05 mg solution for mixture, incubate 5 minutes and produced a conjugated as complex. For treatment group: iv injection of this conjugated solution in 0.2 ml, two time/week for three weeks, for control group: iv injection of only 0.2 ml Ara-C, two time/week for three weeks. […] Surgical removed tumor for immunological pathological analysis, CD4 and CD8 show positive for MDP-Ara-C-DNP conjugated therapy group, control group show negative of CD4 and CD8.

For series [2], the system named is D4 and CD8 antibodies activity. The experiment in a line: CytoxiLux analysis (flow cytometry, FIGS. 1A-B). The series is classed as cell-based. The following applies: lymphoma C57 mice. How it is done:
FIGS. 1A-B show flow cytometry results for CD4 and CD8 immunostaining cells
(§1) Lymphoma cells line growth in the culture for days to reach about 10×10^3, then it is implanted into the right arm of mice C57, about one week, tumor grow to 1 cm size. We prepared that Bruceantin […], Adymicine 10 mg and hapten DNP 0.5 mg were added into the stannous chloride 0.05 mg solution for mixture incubate 5 minutes and produced a conjugated as complex. For treatment group: iv injection of this conjugated solution in 0.2 ml, two-time/week fro three weeks, for control group: iv injection of only 0.2 ml Ara-C, two-time/week for three weeks.
(In flow cytometry, cells or beads pass a laser one at a time.)

For series [3], the system named is CD4 and CD8. In words: Immunological pathological analysis of removed lymphoma tumor (CD4, CD8). In kind it is in vivo. To be noted: C57 mice, after three weeks iv treatment. As for the experimental part:
as §1

Another series concerns non-Hodgkin lymphoma. The experiment in a line: Patient case: malignant lymphoma, chemotherapy and intravenous target therapy. The series is classed as in vivo, human. The following applies: one patient, DDP, Vp-16 and IF0 given together. How it is done: From November of 2002 to August of 2003, the radiotherapy at both axillary regions was administered with DT49Gy, the radiotherapy at both neck regions were administered with DT45Gy. […] The hydrops was drawn off by puncture from the right thoracic cavity, cytology reported: a large amount of lymphocytes and mesothelial cells. The patient was admitted to the hospital for further treatment.
The B ultrasonotrophy on Feb.
After the intravenous target therapy of Bruceantin, Tetrandrine, thalicarpine, maytansine seperately as target agents in combination with anti-cancer drugs by stannous chloride affection for a conjugate as complex for six courses (all kinds of anti-cancer drugs), the effect was obvious.
From Feb. 27, 2006 to Mar. 24, 2006, the intravenous target chemotherapy of Bruceantin and Tetrandrine separately as target agents in combination with anti-cancer drugs by stannous chloride effective for conjugate as complex was administered for a period of four week. On Mar.
The intravenous target chemotherapy of Bruceantin as targeting compound in combination with anti-cancer drugs by stannous chloride function for conjugate as complex was continued for several courses. The CT re-examination in Shandong Medical Imaging Research Institute on Jul.
During the hospitalization, the patient was administered Bruceantin as targeting compound, in combination with the medicaments of 16 times (Arsenic trioxide 5 mg) and 6 times (Ara-C 50 mg), 12 times (cyclophosphamide 0.1), 2 times and VP 16) 50 mg.

Series [4] concerns gastric antrum cancer, intrahepatic lump. To be noted: human, in vivo, iv.
Method: The lateral lump by the lesser curvature of gastric antrum was administered a intratumoral chemotherapy for 3 times/week for three weeks, the lump at the head of pancreas region was administered intratumoral chemotherapy for 2 times/week fro two weeks, abdominal cavity was perfused for 6 times, in which 5-Fu+DDP 20 mg+IL-2 10^6 u were administered for 2 times, Bruceantin plus Adriamycin were perfused to abdominal cavity for 4 times in three weeks.
The intrahepatic lump was administered intratumoral chemotherapy for once. […] ETIFENIN (EHIDA) as target agent in combination with anticancer drugs plus stannous chloride were mixed for a conjugate as a complex, then it was administered intravenous for target therapy and repeated same therapy for 6 times (the formulated medicament mainly comprises: DDP 20 mg for 2 times, 5-Fu 0.5 for 2 times, Ara-C 25 mg for 2 times).

As to `Nc1ccn([C@@H]2O[C@H](CO)[C@@H](O)[C@@H]2O)c(=O)n1` [Ara-C, Cytidine Arabinosyladenine], the “CD4 and CD8 in removed tumor” value is reported as “negative” with CD4 and CD8 [1]; “negative” with CD4 and CD8 [3]. For the same molecule, the “index of D4 and CD8 antibodies activity” value in series [2] is given as 28%.
Take `N.N.[Cl][Pt][Cl]` [DDP, Cisplatin]: the “bone marrow inhibition after chemotherapy” value (“bone marrow inhibition” below) in the series on non-Hodgkin lymphoma is “inhibited to the III degree”.
As for `O=P1(NCCCl)OCCCN1CCCl` (stereo not shown) [IF0], the “bone marrow inhibition” value in the series with non-Hodgkin lymphoma is “inhibited to the III degree”.
In the case of `COc1cc([C@@H]2c3cc4c(cc3[C@@H](O[C@@H]3O[C@@H]5CO[C@@H](C)O[C@H]5[C@H](O)[C@H]3O)[C@H]3COC(=O)[C@H]23)OCO4)cc(OC)c1O` [Vp-16], the “bone marrow inhibition” value in the series with non-Hodgkin lymphoma was “inhibited to the III degree”.
On to “ETIFENIN (EHIDA) as target agent in combination with anticancer drugs”, for which the symptoms after treatment result in series [4] is “abdominal pain, abdominal distention, decreased appetite, accompanied by night sweating and debilitation”.
